Assay results from US20210317140A1, “Heterocyclic Compounds and Methods of Use” (MEDIVATION TECHNOLOGIES, INC, priority 2013, published 2021).

What was measured:
BTK = target: T1, BTK (Homo sapiens, UniProt Q06187); experiment: BTK kinase assay (HotSpot, 33P ATP); format: biochemical; conditions: for BTK @ 0.01 μM (% Inh): 0.01 μM compound; for BTK @ 0.01 μM (% Inh) / BTK @ 0.1 μM (% Inh) / BTK @ 1 μM (% Inh): 10 μM ATP; for BTK @ 0.1 μM (% Inh): 0.1 μM compound; for IC50: 10 dose IC50, 10 μM ATP; for BTK @ 1 μM (% Inh): 1 μM compound
T1 construct: purchased Reaction Biology Corporation
Outline: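 In 20 mM Hepes (pH 7.5) with 10 mM MgCl2, 1 mM EGTA, 0.1 mM Na3VO4, 2 mM DTT, 0.02% Brij35, 0.02 mg/mL BSA and 1% DMSO, kinase and substrate were exposed to ten compound doses for 15–20 min.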

BMX/ETK = target: T2, BMX/ETK (Homo sapiens, UniProt P51813); experiment: BMX/ETK kinase profiling (BTK protocol); format: biochemical; conditions: for BMX/ETK @ 0.3 μM (% Inh): 0.3 μM compound; for IC50: 10 dose IC50
T2 construct: purchased Reaction Biology Corporation
T2 sequence (P51813 1-675): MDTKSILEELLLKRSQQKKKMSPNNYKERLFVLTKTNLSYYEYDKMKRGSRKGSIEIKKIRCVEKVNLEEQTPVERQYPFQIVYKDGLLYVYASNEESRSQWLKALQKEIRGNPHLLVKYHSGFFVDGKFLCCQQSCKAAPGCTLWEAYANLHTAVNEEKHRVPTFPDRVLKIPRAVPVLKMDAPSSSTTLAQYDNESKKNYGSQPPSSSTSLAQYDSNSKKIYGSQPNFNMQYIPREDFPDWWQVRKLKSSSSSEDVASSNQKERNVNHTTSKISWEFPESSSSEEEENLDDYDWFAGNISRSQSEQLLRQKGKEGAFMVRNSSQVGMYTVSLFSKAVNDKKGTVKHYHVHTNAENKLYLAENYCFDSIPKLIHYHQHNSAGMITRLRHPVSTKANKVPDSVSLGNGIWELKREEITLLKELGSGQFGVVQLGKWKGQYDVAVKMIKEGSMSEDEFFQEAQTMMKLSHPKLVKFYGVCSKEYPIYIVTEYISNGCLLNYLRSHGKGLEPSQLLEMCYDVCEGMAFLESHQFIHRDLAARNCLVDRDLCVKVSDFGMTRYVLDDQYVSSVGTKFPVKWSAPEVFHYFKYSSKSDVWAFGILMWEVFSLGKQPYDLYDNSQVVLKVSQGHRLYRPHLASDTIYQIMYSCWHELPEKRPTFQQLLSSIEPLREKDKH
Method: BTK assay: In vitro profiling protein kinases was performed using the “HotSpot” assay platform. Briefly, specific kinase/substrate pairs along with required cofactors were prepared in reaction buffer. Compounds were prepared as 10 mM stock solutions in DMSO. Compounds were delivered into the reaction, followed 15-20 minutes later by addition of a mixture of ATP (Sigma, St. Louis Mo.) and ^33P ATP (Perkin Elmer, Waltham Mass.) to a final concentration of 10 μM. Reactions were carried out at RT for 120 min, followed by spotting of the reactions onto P81 ion exchange filter paper (Whatman Inc., Piscataway, N.J.). Unbound phosphate was removed by extensive washing of filters in 0.75% Phosphoric acid. […] IC50 values and curve fits were obtained using Prism (GraphPad Software). Buffer Conditions: 20 mM Hepes (pH 7.5), 10 mM MgCl2, 1 mM EGTA, 0.02% Brij35, 0.02 mg/mL BSA, 0.1 mM Na3VO4, 2 mM DTT, 1% DMSO.
Compounds of the invention were profiled in a 10 dose IC50 panel against BMX/ETK, ITK and TEC kinases, provided by Reaction Biology Corporation, applied to the BTK protocol provided in Example B1.

T1 sequence (Q06187 whole entry): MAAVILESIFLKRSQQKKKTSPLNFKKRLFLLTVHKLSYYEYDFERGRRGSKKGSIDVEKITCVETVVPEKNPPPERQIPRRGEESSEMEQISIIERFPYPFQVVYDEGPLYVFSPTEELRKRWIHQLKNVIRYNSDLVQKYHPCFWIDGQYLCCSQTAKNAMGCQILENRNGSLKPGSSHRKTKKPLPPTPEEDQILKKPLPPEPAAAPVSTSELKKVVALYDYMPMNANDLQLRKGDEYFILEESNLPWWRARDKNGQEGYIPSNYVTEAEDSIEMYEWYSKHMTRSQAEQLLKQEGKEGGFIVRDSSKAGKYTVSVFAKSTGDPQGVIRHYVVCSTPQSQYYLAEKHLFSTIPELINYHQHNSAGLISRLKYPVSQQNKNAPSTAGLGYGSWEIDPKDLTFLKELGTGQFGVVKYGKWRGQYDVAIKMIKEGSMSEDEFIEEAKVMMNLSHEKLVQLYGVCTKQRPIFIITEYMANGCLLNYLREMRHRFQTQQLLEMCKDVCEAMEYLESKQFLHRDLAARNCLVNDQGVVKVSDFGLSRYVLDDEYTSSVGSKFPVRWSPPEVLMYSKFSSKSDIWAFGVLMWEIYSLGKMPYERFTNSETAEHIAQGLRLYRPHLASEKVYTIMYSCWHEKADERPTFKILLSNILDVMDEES

SMILES	BTK @ 0.01 μM (% Inh) (BTK)	BTK @ 0.1 μM (% Inh) (BTK)	IC50 (BTK)	BMX/ETK @ 0.3 μM (% Inh) (BMX/ETK)	BTK @ 1 μM (% Inh) (BTK)	IC50 (BMX/ETK)	BMX/ETK @ 0.3 μM (% Inh) (BMX/ETK; 0.3 µM)
Nc1ncnc2c1c(-c1ccc(Cl)c(O)c1F)nn2C1Cc2ccccc2C1 [Compound No. 100, 3-[4-amino-1-(2,3-dihydro-1H-inden-2-yl)-1H-pyrazolo[3,4-d]pyrimidin-3-yl]-6-chloro-2-fluorophenol]	17.5 % Inh	52.22 % Inh	78 nM	107.37 % Inh	–	–	–
Nc1ncnc2c1c(-c1ccc(Cl)c(O)c1)nn2C1Cc2ccccc2C1 [Compound No. 56, 5-[4-amino-1-(2,3-dihydro-1H-inden-2-yl)-1H-pyrazolo[3,4-d]pyrimidin-3-yl]-2-chlorophenol]	–	90.244 % Inh	13.5 nM	86.63 % Inh	98.64 % Inh	–	–
Nc1ncnc2c1c(-c1cc(O)c(F)c(F)c1)nn2C1Cc2ccccc2C1 [Compound No. 81, 5-[4-amino-1-(2,3-dihydro-1H-inden-2-yl)-1H-pyrazolo[3,4-d]pyrimidin-3-yl]-2,3-difluorophenol]	–	73.83 % Inh	26.9 nM	85.6 % Inh	94.81 % Inh	–	–
Nc1ncnc2c1c(-c1cc(O)c(F)c(C(F)(F)F)c1)nn2C1Cc2ccccc2C1 [Compound No. 102, 5-[4-amino-1-(2,3-dihydro-1H-inden-2-yl)-1H-pyrazolo[3,4-d]pyrimidin-3-yl]-2-fluoro-3-(trifluoromethyl)phenol]	–	0.67 % Inh	> 1000 nM	4.6 % Inh	9.91 % Inh	–	–
Nc1ncnc2c1c(-c1ccc(F)c(O)c1)nn2C1Cc2ccccc2C1 [Compound No. 29, 5-(4-amino-1-indan-2-yl-pyrazolo[3,4-d]pyrimidin-3-yl)-2-fluoro-phenol]	–	90.90 % Inh	7 nM	–	–	0.8 nM	–
Nc1ncnc2c1c(-c1ccc(F)c(O)c1)nn2C1CCc2ccccc2C1 (single isomer, unassigned) [Compound No. 26a, 5-(4-amino-1-(1,2,3,4-tetrahydronaphthalen-2-yl)-1H-pyrazolo[3,4-d]pyrimidin-3-yl)-2-fluorophenol]	–	84.11 % Inh	10.4 nM	–	–	3.1 nM	–
COc1cc(-c2nn(C3Cc4ccccc4C3)c3ncnc(N)c23)ccc1C [Compound No. 49, 1-(2,3-dihydro-1H-inden-2-yl)-3-(3-methoxy-4-methylphenyl)-1H-pyrazolo[3,4-d]pyrimidin-4-amine]	–	75.02 % Inh	57.1 nM	75.85 % Inh	96.31 % Inh	–	–
Nc1ncnc2c1c(-c1ccc(F)c(O)c1)nn2C1CCc2ccccc2C1 (single isomer, unassigned) [Compound No. 26b, 5-(4-amino-1-(1,2,3,4-tetrahydronaphthalen-2-yl)-1H-pyrazolo[3,4-d]pyrimidin-3-yl)-2-fluorophenol]	–	82.1 % Inh	20.9 nM	–	–	6.2 nM	–
Nc1ncnc2c1c(-c1cc(O)c(F)c(F)c1)cn2C1Cc2ccccc2C1 [Compound No. 101, 5-[4-amino-7-(2,3-dihydro-1H-inden-2-yl)-7H-pyrrolo[2,3-d]pyrimidin-5-yl]-2,3-difluorophenol]	78.34 % Inh	94.7 % Inh	2.47 nM	97.14 % Inh	–	–	–
C=CC(=O)N1CC(n2nc(-c3cc(O)cc(F)c3)c3c(N)ncnc32)Cc2cc(C)ccc21 (centres unmarked) [compound 31, 1-(3-(4-amino-3-(3-fluoro-5-hydroxyphenyl)-1H-pyrazolo[3,4-d]pyrimidin-1-yl)-6-methyl-3,4-dihydroquinolin-1(2H)-yl)prop-2-en-1-one]	–	68.24 % Inh	17.4 nM	89.72 % Inh	–	6400 nM	–
Nc1ncnc2c1c(-c1ccc(Cl)c(O)c1)cn2C1Cc2ccccc2C1 [Compound No. 93, 5-[4-amino-7-(2,3-dihydro-1H-inden-2-yl)-7H-pyrrolo[2,3-d]pyrimidin-5-yl]-2-chlorophenol]	77.86 % Inh	96.32 % Inh	0.8 nM	110.06 % Inh	–	–	–
Nc1ncnc2c1c(-c1cc(O)c(F)c(Cl)c1)cn2C1Cc2ccccc2C1 [compound 110, 5-[4-amino-7-(2,3-dihydro-1H-inden-2-yl)-7H-pyrrolo[2,3-d]pyrimidin-5-yl]-3-chloro-2-fluorophenol]	55.15 % Inh	91.79 % Inh	2.5 nM	92.59 % Inh	–	–	–
Nc1ncnc2c1c(-c1cc(O)cc(F)c1)nn2C1CCc2ccccc2C1 (single isomer, unassigned) [6a, 3-(4-amino-1-(1,2,3,4-tetrahydronaphthalen-2-yl)-1H-pyrazolo[3,4-d]pyrimidin-3-yl)-5-fluorophenol]	–	63.12 % Inh	81.1 nM	–	–	–	84.79 % Inh
COc1ccc(-c2nn(C3Cc4ccccc4C3)c3ncnc(N)c23)cc1O [Compound No. 68, 5-[4-amino-1-(2,3-dihydro-1H-inden-2-yl)-1H-pyrazolo[3,4-d]pyrimidin-3-yl]-2-methoxyphenol]	–	54.54 % Inh	84.3 nM	78.92 % Inh	89.54 % Inh	–	–
Nc1ncnc2c1c(-c1cc(O)cc(F)c1)nn2C1CCc2ccccc2C1 (single isomer, unassigned) [6b, 3-(4-amino-1-(1,2,3,4-tetrahydronaphthalen-2-yl)-1H-pyrazolo[3,4-d]pyrimidin-3-yl)-5-fluorophenol]	–	45.78 % Inh	112 nM	–	–	–	71.49 % Inh
Nc1ncnc2c1c(-c1ccc(Br)c(O)c1)nn2C1Cc2ccccc2C1 [compound 2, 5-(4-amino-1-(2,3-dihydro-1H-inden-2-yl)-1H-pyrazolo[3,4-d]pyrimidin-3-yl)-2-bromophenol]	–	78.45 % Inh	–	–	–	7.7 nM	–
Nc1ncnc2c1c(-c1cc(O)cc(F)c1)cn2C1Cc2ccccc2C1 [Compound No. 63, 3-[4-amino-7-(2,3-dihydro-1H-inden-2-yl)-7H-pyrrolo[2,3-d]pyrimidin-5-yl]-5-fluorophenol]	–	92.01 % Inh	4.2 nM	94.69 % Inh	98.56 % Inh	–	–
Nc1ncnc2c1c(-c1cc(F)c3c(c1)NCCO3)nn2C1Cc2ccccc2C1 [Compound No. 84, 1-(2,3-dihydro-1H-inden-2-yl)-3-(8-fluoro-3,4-dihydro-2H-1,4-benzoxazin-6-yl)-1H-pyrazolo[3,4-d]pyrimidin-4-amine]	–	51.83 % Inh	104 nM	62.51 % Inh	90.69 % Inh	–	–
Nc1ncnc2c1c(-c1cc(O)cc(F)c1)nn2C1Cc2ccc(F)cc2C1 (centres unmarked) [compound 57, 3-[4-amino-1-(5-fluoro-2,3-dihydro-1H-inden-2-yl)-1H-pyrazolo[3,4-d]pyrimidin-3-yl]-5-fluorophenol]	–	63.18 % Inh	134 nM	74.27 % Inh	93.26 % Inh	–	–
Nc1ncnc2c1c(-c1ccc(F)c(O)c1)nn2C1CCc2ccccc2C1 (racemic) [Compound No. 26, 5-(4-amino-1-(1,2,3,4-tetrahydronaphthalen-2-yl)-1H-pyrazolo[3,4-d]pyrimidin-3-yl)-2-fluorophenol]	–	–	10.6 nM	92.36 % Inh	–	–	–
Nc1ncnc2c1c(-c1ccc3cc[nH]c3c1)nn2C1CCc2ccccc2C1 (racemic) [compound 18, 3-(1H-indol-6-yl)-1-(1,2,3,4-tetrahydronaphthalen-2-yl)-1H-pyrazolo[3,4-d]pyrimidin-4-amine]	–	38.26 % Inh	258 nM	73.26 % Inh	–	–	–
